In data set [1] the target is TetR (TetR(B), tetracycline repressor) (Escherichia coli, UniProt P04483). The experiment in a line: SPR, TetR immobilised on CMDH chip by EDC/NHS coupling. Format: binding.
For data set [2], the target named is TetR(B) (Escherichia coli? (TetR(B) cDNA …, UniProt P04483 1-207)). The experiment in a line: EMSA; complex appears from 0.5 uM TetR with 0.5 uM tetO; no Dox; EMSA: 20 mM Tris-HCl pH 8.0, 50 mM NaCl, 1 mM MgCl2, 0.1 mM DTT, 15 min at room temperature; 8% PAGE in 90 mM Tris, 90 mM boric acid, 5 mM MgCl2. The conditions noted are these: protein: recombinant; (cloned NdeI-XhoI; Ni-NTA purified); chain copies: 2; label: none (ethidium bromide stain); blunt. Background: A gel shift assay detects complexes by their altered migration in electrophoresis.
Chain of TetR(B) (Escherichia coli? (P04483 whole entry): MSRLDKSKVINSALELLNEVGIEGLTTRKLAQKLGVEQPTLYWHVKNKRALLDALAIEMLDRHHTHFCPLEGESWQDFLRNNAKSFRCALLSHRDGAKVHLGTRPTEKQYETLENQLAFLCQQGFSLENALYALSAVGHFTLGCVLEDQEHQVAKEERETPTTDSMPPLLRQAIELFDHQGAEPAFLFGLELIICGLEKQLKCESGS

The Kd is the concentration at which binding is half-saturated.

Chain of TetR (TetR(B), tetracycline repressor) (P04483 whole entry, looked up): as the sequence (P04483 whole entry) above

In data set [1], `C=CCc1cccc(C=NNC(=O)CN2CCN(Cc3ccccc3)CC2)c1O` [PAC-1] had a Kd of 260 µM.

B1: tetO (dsDNA)
DNA 1: CCTAATTTTTGTTGACACTCTATCATTGATAGAGTTATTTTACCACTC
DNA 2: GAGTGGTAAAATAACTCTATCAATGATAGAGTGTCAACAAAAATTAGG
Take B1: the binding result in data set [2] was “binds”.

These data come from PMC6328932, “Procaspase activating compound 1 controls tetracycline repressor-regulated gene expression system” (Bioscience Reports, 2019).
